Laboratory results reported in ChEMBL document CHEMBL4837239, “Identification of Thieno[3,2-d]pyrimidine Derivatives as Dual Inhibitors of Focal Adhesion Kinase and FMS-like Tyrosine Kinase 3” (J Med Chem, 2021).

Key:
BaF3 [1] = experiment: Antiproliferative activity against mouse Ba/F3 cells harbouring FLT3 ITD F691L mutant assessed as growth inhibition measured after 72 hrs by CellTiter-Glo assay; assay type: functional; conditions: Mus musculus, BaF3
BaF3 [2] = experiment: Antiproliferative activity against mouse Ba/F3 cells harbouring FLT3 D835Y mutant assessed as growth inhibition measured after 72 hrs by CellTiter-Glo assay; assay type: functional; conditions: Mus musculus, BaF3
BaF3 [3] = experiment: Antiproliferative activity against mouse Ba/F3 cells harbouring FLT3 ITD F691I mutant assessed as growth inhibition measured after 72 hrs by CellTiter-Glo assay; assay type: functional; conditions: Mus musculus, BaF3
BaF3 [4] = experiment: Antiproliferative activity against mouse Ba/F3 cells harbouring FLT3 ITD D835Y mutant assessed as growth inhibition measured after 72 hrs by CellTiter-Glo assay; assay type: functional; conditions: Mus musculus, BaF3
HCT-116 = experiment: Antiproliferative activity against human HCT-116 cells assessed as growth inhibition measured after 72 hrs by CellTiter-Glo assay; assay type: functional
[5] = Antiproliferative activity against human A375P cells assessed as growth inhibition measured after 72 hrs by CellTiter-Glo assay; assay type: functional
Focal adhesion kinase 1 = Focal adhesion kinase 1 (Homo sapiens, UniProt Q05397); experiment: Inhibition of recombinant FAK (unknown origin) by radiometric kinase assay
[6] = Metabolic stability in human liver microsomes assessed as compound remaining at 1 uM measured after 1 hr; assay type: ADME, Microsome; conditions: read-out: Stabilty
MDA-MB-231 = experiment: Antiproliferative activity against human MDA-MB-231 cells assessed as growth inhibition measured after 72 hrs by CellTiter-Glo assay; assay type: functional
[7] = Inhibition of FLT3 D835Y (unknown origin); parameters: species or system Homo sapiens
BaF3 [8] = experiment: Antiproliferative activity against mouse Ba/F3 cells assessed as growth inhibition measured after 72 hrs by CellTiter-Glo assay; assay type: functional; conditions: Mus musculus, BaF3
BaF3 [9] = experiment: Antiproliferative activity against mouse Ba/F3 cells harbouring FLT3 ITD mutant assessed as growth inhibition measured after 72 hrs by CellTiter-Glo assay; assay type: functional; conditions: Mus musculus, BaF3

Sequence of Focal adhesion kinase 1 (Q05397 whole entry): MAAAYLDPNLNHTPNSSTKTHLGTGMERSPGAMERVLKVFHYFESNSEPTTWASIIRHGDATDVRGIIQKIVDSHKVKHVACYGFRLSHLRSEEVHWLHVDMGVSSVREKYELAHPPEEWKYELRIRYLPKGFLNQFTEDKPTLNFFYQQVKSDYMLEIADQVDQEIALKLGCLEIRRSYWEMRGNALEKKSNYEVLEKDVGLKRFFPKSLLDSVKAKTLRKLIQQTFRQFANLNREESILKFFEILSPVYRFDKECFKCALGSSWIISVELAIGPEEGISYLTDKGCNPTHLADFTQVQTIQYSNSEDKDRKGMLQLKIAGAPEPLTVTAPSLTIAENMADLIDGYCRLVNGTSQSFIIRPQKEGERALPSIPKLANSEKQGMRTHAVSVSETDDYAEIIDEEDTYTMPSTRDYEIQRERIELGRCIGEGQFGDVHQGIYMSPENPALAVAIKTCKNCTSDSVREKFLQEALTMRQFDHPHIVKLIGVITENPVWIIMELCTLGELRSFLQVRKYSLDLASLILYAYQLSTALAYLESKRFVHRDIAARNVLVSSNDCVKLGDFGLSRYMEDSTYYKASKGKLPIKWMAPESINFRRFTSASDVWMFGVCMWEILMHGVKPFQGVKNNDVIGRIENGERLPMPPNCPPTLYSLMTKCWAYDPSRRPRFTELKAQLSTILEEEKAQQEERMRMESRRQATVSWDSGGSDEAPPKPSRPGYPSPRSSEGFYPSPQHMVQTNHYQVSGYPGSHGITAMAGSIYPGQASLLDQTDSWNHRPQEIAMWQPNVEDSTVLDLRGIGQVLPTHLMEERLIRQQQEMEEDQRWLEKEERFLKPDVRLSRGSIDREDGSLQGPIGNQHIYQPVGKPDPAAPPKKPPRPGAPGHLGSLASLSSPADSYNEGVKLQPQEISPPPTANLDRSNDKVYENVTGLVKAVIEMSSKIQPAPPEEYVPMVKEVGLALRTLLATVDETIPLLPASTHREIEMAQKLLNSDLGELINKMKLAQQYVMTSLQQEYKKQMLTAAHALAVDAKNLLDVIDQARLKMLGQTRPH

| Compound | GI50 (HCT-116; Homo sapiens, HCT-116) [nM] | IC50 (Focal adhesion kinase 1) [nM] | remaining at 1 h, 1 µM [6] [%] | GI50 (MDA-MB-231; Homo sapiens, MDA-MB-231) [nM] | GI50 ([5]; Homo sapiens, A375P) [nM] | further results |
| --- | --- | --- | --- | --- | --- | --- |
| CCc1nc(C(N)=O)c(Nc2ccc(N3CCC(N4CCN(C)CC4)CC3)c(OC)c2)nc1NC1CCOCC1 [GILTERITINIB] | – | – | – | – | – | GI50 (BaF3 [1]): 82.8 nM; GI50 (BaF3 [2]): 2 nM; GI50 (BaF3 [3]): 259 nM; GI50 (BaF3 [4]): 5 nM |
| CS(=O)(=O)Nc1cccc(-c2csc3cnc(Nc4ccc(N5CCCCC5)cc4)nc23)c1 | – | 68 | 58 | – | – | GI50 (HCT-116): 1490 nM; GI50 [5]: 2780 nM; GI50 (MDA-MB-231): 3380 nM |
| COc1cc(Nc2ncc3scc(-c4ccccc4N(C)S(C)(=O)=O)c3n2)cc(OC)c1OC | – | 15 | – | – | – | – |
| CNC(=O)c1ccccc1-c1csc2cnc(Nc3cc(OC)c(OC)c(OC)c3)nc12 | – | 55 | – | – | – | – |
| CS(=O)(=O)Nc1cccc(-c2csc3cnc(NC4CCCCC4)nc23)c1 | – | 717 | – | – | – | GI50 (HCT-116): 11300 nM; GI50 [5]: 17800 nM; GI50 (MDA-MB-231): 7730 nM |
| CS(=O)(=O)Nc1cccc(-c2csc3cnc(NC4CC4)nc23)c1 | – | 2350 | – | – | – | GI50 (HCT-116): 43200 nM; GI50 [5]: 36600 nM; GI50 (MDA-MB-231): 43500 nM |
| COc1cc(Nc2ncc3scc(-c4ccccc4S(C)(=O)=O)c3n2)cc(OC)c1OC | – | 668 | – | – | – | – |
| CS(=O)(=O)Nc1cccc(-c2csc3cnc(N)nc23)c1 | – | 4030 | – | – | – | GI50 (HCT-116): 33200 nM; GI50 [5]: 43300 nM; GI50 (MDA-MB-231): 27800 nM |
| COc1cc(Nc2ncc3scc(-c4cccc(N(C)S(C)(=O)=O)c4)c3n2)cc(OC)c1OC | – | 35 | – | – | – | – |
| CCN1CCN(c2ccc(Nc3ncc4scc(-c5cccnc5)c4n3)cc2)CC1 | 9130 | 31 | 68.9 | 820 | 710 | IC50 [7]: < 0.5 nM; GI50 (BaF3 [1]): 140 nM; GI50 (BaF3 [8]): 596 nM; GI50 (BaF3 [2]): 7.1 nM; GI50 (BaF3 [3]): 299 nM; GI50 (BaF3 [9]): 20 nM; GI50 (BaF3 [4]): 28.2 nM |
| CN(C)c1ccc(Nc2ncc3scc(-c4cccc(NS(C)(=O)=O)c4)c3n2)cc1 | – | 18 | 63.8 | – | – | GI50 (HCT-116): 2270 nM; GI50 [5]: 3480 nM; GI50 (MDA-MB-231): 3320 nM |
| CS(=O)(=O)Nc1cccc(-c2csc3cnc(Nc4ccccc4)nc23)c1 | – | 30 | 49.6 | – | – | GI50 (HCT-116): 2570 nM; GI50 [5]: 7520 nM; GI50 (MDA-MB-231): 26900 nM |
| COc1cc(Nc2ncc3scc(-c4ccccc4NS(C)(=O)=O)c3n2)cc(OC)c1OC | – | 78 | – | – | – | – |
| CC(C)(C)c1cc(NC(=O)Nc2ccc(-c3cn4c(n3)sc3cc(OCCN5CCOCC5)ccc34)cc2)no1 [QUIZARTINIB] | – | – | – | – | – | GI50 (BaF3 [1]): 68.2 nM; GI50 (BaF3 [8]): > 10000 nM; GI50 (BaF3 [2]): 2.2 nM; GI50 (BaF3 [3]): > 10000 nM; GI50 (BaF3 [9]): 0.6 nM; GI50 (BaF3 [4]): 12.9 nM |
| CCN1CCN(c2ccc(Nc3ncc4scc(-c5ccccc5[N+](=O)[O-])c4n3)cc2)CC1 | 990 | 361 | – | 1010 | 1500 | – |
| COc1cc(Nc2ncc3scc(-c4cccc(S(C)(=O)=O)c4)c3n2)cc(OC)c1OC | – | 91 | – | – | – | – |

The next lines start with results.

| GI50 (HCT-116; Homo sapiens, HCT-116) [nM] | IC50 (Focal adhesion kinase 1) [nM] | remaining at 1 h, 1 µM [6] [%] | GI50 (MDA-MB-231; Homo sapiens, MDA-MB-231) [nM] | Compound | GI50 ([5]; Homo sapiens, A375P) [nM] | further results |
| --- | --- | --- | --- | --- | --- | --- |
| 370 | 29 | 44.1 | 880 | CCN1CCN(c2ccc(Nc3ncc4scc(-c5cnc6ccccc6c5)c4n3)cc2)CC1 | 8050 | – |
| 420 | 13 | 100 | 1420 | CCN1CCN(c2cccc(Nc3ncc4scc(-c5cccc(NS(C)(=O)=O)c5)c4n3)c2)CC1 | 900 | – |
| – | 49 | – | – | COc1cc(Nc2ncc3scc(-c4cccc(C(=O)O)c4)c3n2)cc(OC)c1OC | – | – |
| 1100 | 321 | – | 950 | CCOC(=O)c1cccc(-c2csc3cnc(Nc4ccc(N5CCN(CC)CC5)cc4)nc23)c1 | 1650 | – |
| 170 | 11 | 60.2 | 420 | CCN1CCN(c2ccc(Nc3ncc4scc(-c5cccc(S(=O)(=O)NC)c5)c4n3)cc2)CC1 | 400 | IC50 [7]: < 0.5 nM; GI50 (BaF3 [1]): 226 nM; GI50 (BaF3 [8]): 468 nM; GI50 (BaF3 [2]): 6.1 nM; GI50 (BaF3 [3]): 243 nM; GI50 (BaF3 [9]): 34.7 nM; GI50 (BaF3 [4]): 13.2 nM |
| 300 | 36 | 71.1 | 1260 | CCN1CCN(c2ccc(Nc3ncc4scc(-c5cccc(C(=O)NC)c5)c4n3)cc2)CC1 | 1360 | – |
| 4350 | 59 | – | 4640 | CCN1CCN(c2ccc(Nc3ncc4scc(-c5cccc(C(=O)O)c5)c4n3)cc2)CC1 | 12300 | – |
| 270 | 12 | 54.2 | 290 | CCN1CCN(c2ccc(Nc3ncc4scc(-c5ccccn5)c4n3)cc2)CC1 | 420 | IC50 [7]: < 0.5 nM; GI50 (BaF3 [1]): 55 nM; GI50 (BaF3 [8]): 206 nM; GI50 (BaF3 [2]): 1.2 nM; GI50 (BaF3 [3]): 164 nM; GI50 (BaF3 [9]): 9.1 nM; GI50 (BaF3 [4]): 14.2 nM |
| – | 18 | – | – | COc1cc(Nc2ncc3scc(-c4ccccn4)c3n2)cc(OC)c1OC | – | – |
| 9130 | – | – | 11400 | CNC(=O)c1ccc(Nc2ncc(C(F)(F)F)c(NCc3nccnc3N(C)S(C)(=O)=O)n2)cc1 [DEFACTINIB] | 5940 | – |
| 1880 | 194 | – | 8820 | CCN1CCN(c2ccc(Nc3ncc4scc(-c5ccccc5S(C)(=O)=O)c4n3)cc2)CC1 | 4270 | – |
| 190 | 21 | 57.2 | 450 | CCN1CCN(c2ccc(Nc3ncc4scc(-c5cccc(N(C)S(C)(=O)=O)c5)c4n3)cc2)CC1 | 220 | IC50 [7]: < 0.5 nM; GI50 (BaF3 [1]): 117 nM; GI50 (BaF3 [8]): 695 nM; GI50 (BaF3 [2]): 53 nM; GI50 (BaF3 [3]): 301 nM; GI50 (BaF3 [9]): 31.7 nM; GI50 (BaF3 [4]): 14.3 nM |
| – | 26 | – | – | COc1cc(Nc2ncc3scc(-c4cccnc4)c3n2)cc(OC)c1OC | – | – |
| 510 | 18 | 55.5 | 520 | CCN1CCN(c2ccc(Nc3ncc4scc(-c5cccc(S(C)(=O)=O)c5)c4n3)cc2)CC1 | 640 | IC50 [7]: < 0.5 nM; GI50 (BaF3 [1]): 170 nM; GI50 (BaF3 [8]): 427 nM; GI50 (BaF3 [2]): 8.7 nM; GI50 (BaF3 [3]): 245 nM; GI50 (BaF3 [9]): 20.6 nM; GI50 (BaF3 [4]): 25.2 nM |
